Tests used:
HCV GT1a(H77) replicon = experiment: HCV replicon luciferase reporter assay, genotype 1a; assay type: cell-based, HCV genotype 1a; conditions: Hepatitis C virus, 72 h, HUH-7 cells, Renilla luciferase, 3 days incubation, read-out: LE_1a (EC50, range)
Text: A stable HCV GT1a(H77) replicon luciferase reporter cell line (Yanagi M, Purcell RH, Emerson S U, et al. Transcripts from a single full-length cDNA clone of hepatitis C virus are infectious when directly transfected into the liver of a chimpanzee. Proc Natl Acad Sci USA 1997; 94(16):8738-8743) was generated as described previously for the genotype 1b(Con1) replicon luciferase cell line. The replicon construct was modified by introducing mutations into the genes encoding the NS3 helicase domain (proline replaced by leucine at position 1496) and NS5A (serine to isoleucine at position 2204) to improve replication in cell culture.
(§1) HCV replicon luciferase assays were developed to monitor the inhibitory effects of compounds described in the disclosure on HCV genotypes 1a and 1b viral replication. HUH-7 cells, constitutively expressing the HCV replicon, were grown in Dulbecco's Modified Eagle Media (DMEM) (Gibco-BRL) containing 10% Fetal calf serum (FCS) (Sigma) and 1 mg/mL G418 (Gibco-BRL). Compounds were serially diluted 3 folds in DMSO for a twenty-point titration and subsequently transferred to sterile 384-well tissue-culture treated plates (Corning cat #3571). The plates were then seeded with 50 μL of cells at a density of 3.0×10^3 cells/well in DMEM containing 4% FCS (final DMSO concentration at 0.5%). After 3 days incubation at 37° C., cells were analyzed for Renilla Luciferase activity using the EnduRen as substrate (Promega cat #E6485). The EnduRen substrate was diluted in DMEM and then added to the plates to a final concentration of 7.5 μM. The plates were incubated for 2 hrs at 37° C. and then read immediately for 30 seconds with Viewlux Imager (PerkinElmer) using a luminescence program. To assess cytotoxicity of compounds, CC50 values were generated by multiplexing the EnduRen-containing plates with Cell Titer-Blue (Promega, cat #G8082). Cell-Titer Blue (3 μL) was added to each well and incubated for 8 hrs at 37° C. The fluorescence signal from each well was read, with an excitation wavelength at 525/10 nm and an emission wavelength of 598/10 nm, using the Viewlux Imager.
(§2) The EC50 values for compounds were calculated by using a four-parameter logistic equation: y=A+[…])/(1+((C/x)^D))), where A and B denotes minimal and maximal % inhibition, respectively, C is the EC50, D is the hill slope and x represents compound concentration.

HCV GT1b(Con1) replicon = experiment: HCV replicon luciferase reporter assay, genotype 1b; assay type: cell-based, HCV genotype 1b; conditions: Hepatitis C virus, 72 h, HUH-7 cells, Renilla luciferase, 3 days incubation, read-out: LE_1b (EC50, range)
Text: An HCV GT1b(Con1) replicon cell system was established as described by Lohmann V, Korner F, Koch J, Herian U, Theilmann L, Bartenschlager R., Science 285(5424):110-3 (1999) and modified to introduce a luciferase reporter (Krieger N, Lohmann V, and Bartenschlager R, J. Virol. 75(10):4614-4624 (2001)). cDNA encoding a humanized form of the Renilla luciferase gene, and a linker sequence fused directly to the 3′-end of the luciferase gene were introduced into the replicon construct using an Asc1 restriction site located in core, directly upstream of the neomycin marker gene. The adaptive mutation at position 1179 (serine to isoleucine) was also introduced (Blight K J, Kolykhalov, A A, Rice, C M, Science 290(5498):1972-1974). A stable cell line constitutively expressing this HCV replicon construct was generated by first linearizing plasmid DNAs with ScaI. RNA transcripts were synthesized in vitro using the T7 MegaScript transcription kit (Ambion, Austin, Tex.) according to manufacturer's directions. In vitro transcripts of the cDNA were transfected into the human hepatoma cell line, HUH-7. […] Resulting cell lines were characterized for positive and negative strand RNA production and protein production over time.
as §1, §2

Structure (SMILES)	EC50 (HCV GT1a(H77) replicon) [nM]	EC50 (HCV GT1b(Con1) replicon) [nM]
CC(C)Oc1ccc(-c2cc(O[C@@H]3C[C@H]4C(=O)N[C@]5(C(=O)NS(=O)(=O)C6(C)CC6)C[C@H]5/C=C\CC[C@H](C)C[C@@H](C)[C@H](NC(=O)OC(C)(C)C(F)(F)F)C(=O)N4C3)cc(-c3ccccn3)n2)cc1 [Compound 1022, 1,1,1-trifluoro-2-methylpropan-2-yl ((2R,6S,7R,9S,13aS,14aR,16aS,Z)-2-((6-(4-isopropoxyphenyl)-[2,2′-bipyridin]-4-yl)oxy)-7,9-dimethyl-14a-(((1-methylcyclopropyl)sulfonyl)carbamoyl)-5,16-dioxo-1,2,3,5,6,7,8,9,10,11,13a,14,14a,15,16,16a-hexadecahydrocyclopropa[e]pyrrolo[1,2-a][1,4]diazacyclopentadecin-6-yl)carbamate]	5.01 to 35	1.01 to 5
C[C@@H]1CC/C=C\[C@@H]2C[C@@]2(C(=O)NS(=O)(=O)C2(C)CC2)NC(=O)[C@@H]2C[C@@H](Oc3ncccc3C(F)(F)F)CN2C(=O)[C@@H](NC(=O)OC(C)(C)C)[C@H](C)C1 [Compound 1065, tert-butyl ((2R,6S,7R,9R,13aS,14aR,16aS,Z)-7,9-dimethyl-14a-(((1-methylcyclopropyl)sulfonyl)carbamoyl)-5,16-dioxo-2-((3-(trifluoromethyl)pyridin-2-yl)oxy)-1,2,3,5,6,7,8,9,10,11,13a,14,14a,15,16,16a-hexadecahydrocyclopropa[e]pyrrolo[1,2-a][1,4]diazacyclopentadecin-6-yl)carbamate]		1.01 to 5
CC[C@@H]1O[C@H](C)CC/C=C\[C@@H]2C[C@@]2(C(=O)NS(=O)(=O)C2(C)CC2)NC(=O)[C@@H]2C[C@@H](Oc3cc(-c4ccc(OC(C)C)cc4)nc(-c4cncs4)c3)CN2C(=O)[C@H]1NC(=O)OC1(C(F)(F)F)CCCOC1 (stereo partly drawn) [Compound 1034, 3-(trifluoromethyl)tetrahydro-2H-pyran-3-yl ((2R,6S,7S,9R,13aS,14aR,16aS,Z)-7-ethyl-2-((2-(4-isopropoxyphenyl)-6-(thiazol-5-yl)pyridin-4-yl)oxy)-9-methyl-14a-(((1-methylcyclopropyl)sulfonyl)carbamoyl)-5,16-dioxo-2,3,5,6,7,9,10,11,13a,14,14a,15,16,16a-tetradecahydro-1H-cyclopropa[i]pyrrolo[1,2-e][1,5,8]oxadiazacyclopentadecin-6-yl)carbamate]	1.01 to 5	0.51 to 1
CC(C)Oc1ccc(-c2cc(O[C@@H]3C[C@H]4C(=O)N[C@]5(C(=O)NS(=O)(=O)C6(C)CC6)C[C@H]5/C=C\CC[C@@H](C)C[C@@H](C)[C@H](NC(=O)OC5(C(F)(F)F)CCCOC5)C(=O)N4C3)cc(-c3ccccn3)n2)cc1 (stereo partly drawn) [Compound 1051, 3-(trifluoromethyl)tetrahydro-2H-pyran-3-yl ((2R,6S,7R,9R,13aS,14aR,16aS,Z)-2-((6-(4-isopropoxyphenyl)-[2,2′-bipyridin]-4-yl)oxy)-7,9-dimethyl-14a-(((1-methylcyclopropyl)sulfonyl)carbamoyl)-5,16-dioxo-1,2,3,5,6,7,8,9,10,11,13a,14,14a,15,16,16a-hexadecahydrocyclopropa[e]pyrrolo[1,2-a][1,4]diazacyclopentadecin-6-yl)carbamate]	1.01 to 5	0.1 to 0.5
COc1cccc(O[C@@H]2C[C@H]3C(=O)N[C@]4(C(=O)NS(=O)(=O)C5(C)CC5)C[C@H]4/C=C\CC[C@@H](C)C[C@@H](C)[C@H](NC(=O)OC(C)(C)C(F)(F)F)C(=O)N3C2)n1 [Compound 1068, 1,1,1-trifluoro-2-methylpropan-2-yl ((2R,6S,7R,9R,13aS,14aR,16aS,Z)-2-((6-methoxypyridin-2-yl)oxy)-7,9-dimethyl-14a-(((1-methylcyclopropyl)sulfonyl)carbamoyl)-5,16-dioxo-1,2,3,5,6,7,8,9,10,11,13a,14,14a,15,16,16a-hexadecahydrocyclopropa[e]pyrrolo[1,2-a][1,4]diazacyclopentadecin-6-yl)carbamate]		1.01 to 5
COc1cccc(-c2cc(O[C@@H]3C[C@H]4C(=O)N[C@]5(C(=O)NS(=O)(=O)C6(C)CC6)C[C@H]5/C=C\CC[C@@H](C)C[C@@H](C)[C@H](NC(=O)OC(C)(C)C(F)(F)F)C(=O)N4C3)cc(-c3ccc(OC(C)C)cc3)n2)n1 [Compound 1011, 1,1,1-trifluoro-2-methylpropan-2-yl ((2R,6S,7R,9R,13aS,14aR,16aS,Z)-2-((6-(4-isopropoxyphenyl)-6′-methoxy-[2,2′-bipyridin]-4-yl)oxy)-7,9-dimethyl-14a-(((1-methylcyclopropyl)sulfonyl)carbamoyl)-5,16-dioxo-1,2,3,5,6,7,8,9,10,11,13a,14,14a,15,16,16a-hexadecahydrocyclopropa[e]pyrrolo[1,2-a][1,4]diazacyclopentadecin-6-yl)carbamate]	1.01 to 5	1.01 to 5
CC(C)Oc1ccc(-c2cc(Cl)cc(O[C@@H]3C[C@H]4C(=O)N[C@]5(C(=O)NS(=O)(=O)C6(C)CC6)C[C@H]5/C=C\CC[C@@H](C)C[C@@H](C)[C@H](NC(=O)OC(C)(C)C)C(=O)N4C3)n2)cc1 [Compound 1029, tert-butyl ((2R,6S,7R,9R,13aS,14aR,16aS,Z)-2-((4-chloro-6-(4-isopropoxyphenyl)pyridin-2-yl)oxy)-7,9-dimethyl-14a-(((1-methylcyclopropyl)sulfonyl)carbamoyl)-5,16-dioxo-1,2,3,5,6,7,8,9,10,11,13a,14,14a,15,16,16a-hexadecahydrocyclopropa[e]pyrrolo[1,2-a][1,4]diazacyclopentadecin-6-yl)carbamate]	1.01 to 5	1.01 to 5
C[C@@H]1CC/C=C\[C@@H]2C[C@@]2(C(=O)NS(=O)(=O)C2(C)CC2)NC(=O)[C@@H]2C[C@@H](Oc3nccc(Cl)c3C(F)(F)F)CN2C(=O)[C@@H](NC(=O)OC(C)(C)C(F)(F)F)[C@H](C)C1 [Compound 1067, 1,1,1-trifluoro-2-methylpropan-2-yl ((2R,6S,7R,9R,13aS,14aR,16aS,Z)-2-((4-chloro-3-(trifluoromethyl)pyridin-2-yl)oxy)-7,9-dimethyl-14a-(((1-methylcyclopropyl)sulfonyl)carbamoyl)-5,16-dioxo-1,2,3,5,6,7,8,9,10,11,13a,14,14a,15,16,16a-hexadecahydrocyclopropa[e]pyrrolo[1,2-a][1,4]diazacyclopentadecin-6-yl)carbamate]		0.1 to 0.5
C[C@@H]1CC/C=C\[C@@H]2C[C@@]2(C(=O)NS(=O)(=O)C2(C)CC2)NC(=O)[C@@H]2C[C@@H](Oc3ncccc3Cl)CN2C(=O)[C@@H](NC(=O)OC(C)(C)C(F)(F)F)[C@H](C)C1 [Compound 1069, 1,1,1-trifluoro-2-methylpropan-2-yl ((2R,6S,7R,9R,13aS,14aR,16aS,Z)-2-((3-chloropyridin-2-yl)oxy)-7,9-dimethyl-14a-(((1-methylcyclopropyl)sulfonyl)carbamoyl)-5,16-dioxo-1,2,3,5,6,7,8,9,10,11,13a,14,14a,15,16,16a-hexadecahydrocyclopropa[e]pyrrolo[1,2-a][1,4]diazacyclopentadecin-6-yl)carbamate]		0.1 to 0.5
C[C@@H]1CC/C=C\[C@@H]2C[C@@]2(C(=O)NS(=O)(=O)C2(C)CC2)NC(=O)[C@@H]2C[C@@H](Oc3ncccc3C(F)(F)F)CN2C(=O)[C@@H](NC(=O)OC(C)(C)C(F)(F)F)[C@H](C)C1 [Compound 1066, 1,1,1-trifluoro-2-methylpropan-2-yl ((2R,6S,7R,9R,13aS,14aR,16aS,Z)-7,9-dimethyl-14a-(((1-methylcyclopropyl)sulfonyl)carbamoyl)-5,16-dioxo-2-((3-(trifluoromethyl)pyridin-2-yl)oxy)-1,2,3,5,6,7,8,9,10,11,13a,14,14a,15,16,16a-hexadecahydrocyclopropa[e]pyrrolo[1,2-a][1,4]diazacyclopentadecin-6-yl)carbamate]		0.51 to 1

Source: patent US9334279B2, “Hepatitis C virus inhibitors” (BRISTOL-MYERS SQUIBB COMPANY, priority 2012, dated 2016)
